Laboratory results: patent US12377167B2, “Application of AuCs or substances containing AuCs in the preparation of drugs for preventing and/or treating glaucoma” (Shenzhen Profound-View Pharma Tech Co., Ltd, priority 2016, dated 2025)

Assays:
Aβ(1-40) [1] = target: T1, Aβ(1-40) (Homo sapiens, UniProt P05067); experiment: In vitro Aβ(1-40) aggregation kinetics, ThT fluorescent labeling method; format: biochemical; details: 20 μM Aβ(1-40); L-NIBC 1.0 and 10.0 ppm; gold nanoparticles up to 20.0 ppm
T1 construct: Freeze-dried powder of amyloid polypeptide Aβ(1-40) (Invitrogen Corp.); purchased Invitrogen Corp
Text: As described above, Aβ plays an important role in the pathogenesis of glaucoma and is an important target for treatment of glaucoma based on the optic nerve protection mechanism. […] Moreover, the function is from AuCs other than ligand. […] Thioflavin T (abbreviation: ThT) is a dye specifically for dyeing amyloid fibers. […] When it encounters amyloid polypeptides or proteins with a fiber structure, it will immediately couple with the amyloid polypeptides or proteins and its fluorescence intensity will increase exponentially. Just because of this property, ThT is widely used as a marker to monitor amyloidosis of peptides or proteins. The fibrosis process of Aβ(1-40) is also a nucleation-controlled polymerization process. Therefore, the growth curve of Aβ(1-40) fiber measured by ThT fluorescent labeling method is mainly divided into three stages: Initial stage, growth stage and platform stage. The initial stage is mainly a stage when Aβ(1-40) undergoes conformational transition to form misfolding and then aggregates and nucleates. […] All the Aβ(1-40) PBS solutions for the experiments were prepared freshly. […] The samples were incubated continuously in a 96-well plate at 37° C. by ThT fluorescent labeling method, and monitored the fluorescence intensity by microplate reader once every 10 minutes.

RGC-5 cells [2] = experiment: Sodium nitroprusside (SNP)-induced RGC-5 apoptosis model, CCK-8 cell viability; format: cell-based
Method: (§1) The cell viability was used as an index in the experiment of this embodiment.
RGC-5 cells in logarithmic growth phase were diluted with complete medium to get a cell suspension in a density of 5×10^4/mL. The suspension was inoculated 100 μL per well into a 96-well plate, and cultivated in an incubator with 5% CO2 at 37° C. […] The absorbance value of each well at 450 nm wave length was measured to evaluate the pre-protective effect of AuCs on SNP injury. […] The absorbance value of each well at 450 nm wave length was measured to evaluate the curative effect of AuCs on SNP injury. […]
RGC-5 cells in logarithmic growth phase were diluted with complete medium to get a cell suspension in a density of 5×10^4/mL. […] The absorbance value of each well at 450 nm wave length was measured to evaluate the pre-protective effect of AuCs on SNP injury. […]

Aβ(1-40) [3] = target: T1, Aβ(1-40); experiment: AFM topography of Aβ(1-40) after 48 h co-incubation; format: biochemical; details: co-incubated for 48 h
Method: Panel A is the AFM topography after Aβ(1-40) was incubated alone for 48 h. Panel B is an AFM topography after Aβ(1-40) was coincubated with L-NIBC for 48 h. Panel C and panel D are AFM topographies after Aβ(1-40) was coincubated with gold nanoparticles with an average particle size of 6.0 nm and 3.6 nm respectively (modified with L-NIBC) for 48 h. And panel E is an AFM topography after Aβ(1-40) was coincubated with AuCs in an average particle size of 1.8 nm (modified with L-NIBC) for 48 h.

RGC-5 cells [4] = experiment: NMDA-induced RGC-5 cell excitotoxicity model, CCK-8; format: cell-based; details: 250 μM NMDA, 0.01-10 ppm
Method: This embodiment used cell survival rate as an index.
RGC-5 cells in logarithmic growth phase were diluted with complete medium to get a cell suspension in a density of 5×10^4/mL. The suspension was inoculated 100 μL per well into a 96-well plate, and cultivated in an incubator with 5% CO2 at 37° C. One of administration ways in an experiment group is: The original culture medium was removed when the cells attached to the wells, and 50 μL test substances (the test substances were: three kinds of L-NIBC-modified AuCs in particle sizes of 2.6 nm, 1.8 nm or 1.1 nm, or four kinds of L-NIBC-modified gold nanoparticles in particle sizes of 18.2 nm, 10.1 nm, 6.0 nm or 3.6 nm, or L-NIBC molecules not bonded with AuCs or gold nanoparticles as reference) solutions at different concentrations prepared by maintenance medium were added to different wells to make the final concentration be 0.01, 0.05, 0.1, 0.5, 1, 5 and 10 ppm respectively, then 50 μL of NMDA (the final concentration was 250 μM) was added to the administration group and model group after 2 hours' pretreatment. […] The absorbance value of each well at 450 nm wave length was measured to evaluate the pre-protective effect of AuCs on NMDA injury. […] The absorbance value of each well at 450 nm wave length was measured to evaluate the curative effect of AuCs on NMDA injury. […]

RGC-5 cells [5] = experiment: H2O2-induced RGC-5 cell oxidative stress injury model, CCK-8 cell viability; format: cell-based
Method: as §1
RGC-5 cells in logarithmic growth phase were diluted with complete medium (MEM+10% FBS+1% penicillin-streptomycin) to get a cell suspension in a density of 5×10^4/mL. The suspension was inoculated 100 μL per well into a 96-well plate, and cultivated in an incubator with 5% CO2 at 37° C. One of administration ways in an experiment group is: The original culture medium was removed when the cells attached to the wells, and 50 μL test substances (the test substances were: three kinds of L-NIBC-modified AuCs in particle sizes of 2.6 nm, 1.8 nm or 1.1 nm, or four kinds of L-NIBC-modified gold nanoparticles in particle sizes of 18.2 nm, 10.1 nm, 6.0 nm or 3.6 nm, or L-NIBC molecules not bonded with AuCs or gold nanoparticles as reference) solutions at different concentrations prepared by maintenance medium (DMEM medium+2% FBS+1% penicillin-streptomycin) were added to different wells to make the final concentration be 0.01, 0.05, 0.1, 0.5, 1, 5 and 10 ppm respectively, then 50 μL of H2O2 (the final concentration was 100 μM) was added to the administration group and model group after 2 hours' pretreatment. The cells were incubated for 24 h, then 10% CCK-8 was added to each well and incubated for 4 h. […]

T1 sequence (P05067 672-711 limits assumed): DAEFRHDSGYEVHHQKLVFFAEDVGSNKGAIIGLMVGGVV

Q: Which “effect on Aβ(1-40) amyloidosis kinetics” value (Aβ(1-40) [1]) does the source give for `CC(C)C(=O)N[C@@H](CS)C(=O)O` [L-NIBC, N-isobutyryl-L-cysteine] here?
A: no obvious effect on Aβ(1-40) amyloidosis kinetics

Q: And the viability at 10 ppm (RGC-5 cells [2]; RGC5, 10 ppm, 700 μM SNP, 24 h, read-out: cell viability relative to the blank control group (set to be 100%))?
A: 52.8 ± 8%

Q: And the “effect on cell viability / SNP-induced RGC apoptosis” value (RGC-5 cells [2]; SNP-injured RGC cell model, CCK-8)?
A: did not have an obvious protective effect

Q: What about the “Aβ(1-40) fibers in AFM topography” value (Aβ(1-40) [3]) of the same compound?
A: no obvious effect on the formation of Aβ(1-40) fibers

Q: And the “effect on cell viability / neurotransmitter mediated excitatory RGC apoptosis” value (RGC-5 cells [4])?
A: did not have an obvious effect

Q: And the “effect on cell viability / RGC apoptosis triggered by oxidative stress” value (RGC-5 cells [5]; H2O2-injured RGC cell model, CCK-8)?
A: did not have an obvious effect

Q: And the viability at 10 ppm (RGC-5 cells [5]; RGC5, 10 ppm, H2O2, 24 h, read-out: cell viability relative to the blank control group (set to be 100%))?
A: 47.5 ± 6.6%
